The test system of data set [1] is viable circulating endothelial cell precursors (CEPS). Description: Cobalamin-paclitaxel bioconjugate dose study: viable circulating endothelial cell precursors. Conditions: mice. The data set is classed as in vivo.
Method: (§1) The effects on counts of viable circulating endothelial cell precursors and white blood cells are measured after 28 days. Corresponding amounts of the cobalamin-paclitaxel bioconjugate, viable circulating endothelial cell precursors (CEPS), and white blood cells are presented in the Table 1:
The subject of a further data set is white blood cells. Description: Cobalamin-paclitaxel bioconjugate dose study: white blood cell count. The data set is classed as in vivo. Conditions: mice, about 2 mg/kg, 28 days.
Data set [2] concerns bFGF-stimulated formation of new blood vessel in the Matrigel plug. Description: Matrigel plug perfusion in vivo assay. Conditions: mice, 2, 6 and 30 mg/kg (paclitaxel units), oral gavage. On the procedure:
A Matrigel® plug perfusion in vivo assay is performed to determine the anti-angiogenic efficacy of the cobalamin-paclitaxel bioconjugate (Cob-Pac) of Example 1. The assay uses Matrigel®, a gelatinous protein mixture secreted by mouse tumor cells (BD Biosciences, San Jose, Calif.), to duplicate tissue environments. Matrigel® is liquid at room temperature, but when injected into the animal, forms a solid plug. If a growth vessel stimulant such as basic fibroblast growth factor (bFGF) is mixed with the Matrigel®, the bFGF stimulates the formation of new blood vessel in the plug, which can be monitored in the animal via fluorescence techniques. In the current study, Matrigel® is injected either alone or with bFGF subcutaneously into mice.

In data set [3] the test system is choroidal neovascularization by laser burns of the eye. Description: Choroidal neovascularization model (fluorescein angiography leakage score). Format: in vivo. Conditions: rats.
Method: Groups of 8 rats/dosage group or vehicle are neovascularized by laser burns on the eye. Afterwards, the eye is immediately treated with a cobalamin-paclitaxel bioconjugate prepared in accordance with Example 1 at a dose of 1.5 μg/2 μL, 5.0 μg/2 μL, and 15 μg/2 μL (indicated as B.C. in FIG. 1). The treatment regimen also includes a vehicle and Kenacort Retard® (4% triamcinolone acetonide), as a positive control. Each treatment is scored at 7, 14, and 21 days post-treatment by infusing the eye with fluorescein and scoring the leakage using angiography. A score of 0 indicates no leakage while a score of 3 indicates severe leakage.
In data set [4] the test system is choroidal neovascularization lesions. Description: Lesion study (flat mount evaluation, choroidal neovascularization). The data set is classed as in vivo, rats. The note with it: after 21 days.
Method: In another study, flat mount evaluation of the eyes can be carried out at the end of the study because angiography may not provide a full evaluation of the effect of the drug. At the end of the study, the eyes are removed, histologically processed and all lesions can be seen (including those that can not be detected by angiography). Such an evaluation can be used as a better measure of the choroidal neovascularization model.
Dosages used are 1.5 μg/2 μL, 5.0 μg/2 μL, and 15 μg/2 μL. The treatments also include a vehicle and Kenacort Retard® (4% triamcinolone acetonide). After 21 days, the eyes are removed, histologically processed, and the lesion size scored in μm^3.
Another data set in a line: Water solubility. Format: physicochemical. Conditions: conjugated to cobalt atom of cobalamin.

Bounds are passed on as bounds.

The text below walks through data of patent US20110166097A1, “TAXANE COMPOUNDS FOR TREATING EYE DISEASE” (Osiris Therapeutics, Inc., priority 2008, published 2011).

Method for white blood cells: as §1

As for `CC(=O)O[C@H]1C(=O)[C@@]2(C)C([C@H](OC(=O)c3ccccc3)[C@]3(O)C[C@H](OC(=O)[C@H](OC(=O)C[NH+](C)CC[CH2][Co+][N]4/C5=C(/C)C6=N/C(=C\C7=NC(=C(/C)C8=NC(C(C)C4C(CC(N)=O)C5(C)CCC(=O)NCC(C)OP(=O)([O-])OC4C(CO)OC(n5cnc9cc(C)c(C)cc95)C4O)C(C)(CC(N)=O)C8CCC(N)=O)/C(C)(CC(N)=O)C7CCC(N)=O)C(C)(C)C6CCC(N)=O)[C@@H](NC(=O)c4ccccc4)c4ccccc4)C(C)=C1C3(C)C)[C@]1(OC(C)=O)COC1C[C@@H]2O.[Cl-]` (stereo partly drawn) [cobalamin-paclitaxel bioconjugate, Cbl-(CH2)3N(CH3)CH2COO-2′-PTX], in data set [1] (28-day dose study, dose as paclitaxel), the “Most effective dose (viable CEPS)” value is “about 2 mg/kg”. For the same molecule, the “Anti-angiogenic effect on viable CEPS” value in data set [1] (at each dose (1.5-30 mg/kg), 28 days) is given as “marked decrease in viable CEPS”. The “Toxicity by white blood cell count” value in the data set with white blood cells was “no neutropenia”. For the same molecule, in data set [2], the “Effect on growth of new blood vessels in Matrigel plug” value is recorded as “inhibits the growth of new blood vessels in each instance shown”. The “Anti-angiogenic result by angiography leakage score (FIG. 1)” value is given as “show anti-angiogenic results” in data set [3] (after 7 days, intermediate and high doses (5.0 μg/2 μL and 15 μg/2 μL) to the eye); “still provides anti-angiogenic benefit” in data set [3] (after 14 days, high dose (15 μg/2 μL) to the eye). Besides, the “Number of blood vessel lesions (FIG. 2)” value in data set [4] (rats, 1.5, 5.0 and 15 μg/2 μL to the eye) is “decrease in a concentration dependent manner”. The “Inhibition of new blood vessel growth (lesion study)” value in data set [4] (rats, high and medium concentrations (15 and 5.0 μg/2 μL)) is on record as “efficacious in inhibiting new blood vessel growth”. Further, the solubility in “Water solubility” is > 100 mg/mL.
